In US20070248705A1, “Agents for Activating the Transcription Factor Nrf2 and Foods Having Such Function” (KIRIN BEER KABUSHIKI KAISHA, priority 2004, published 2007):

How the values were obtained:
[1] = tested on: glucose-6-phosphate dehydrogenase 2 (G6PD2); assay: Expression of genes controlled by Nrf2 in RAW264.7: G6PD2; format: cell-based, mouse; details: RAW264.7, 25 μM, 20 hours
Protocol: (§1) A mouse macrophage cell line RAW264.7 was seeded on a φ60 mm dish (9×10^5 cells), 2 ml of a D-MEM medium (Invitrogen) supplemented with 10% fetal bovine serum (HyClone) and penicillin-streptomycin (100 units/ml and 100 μg/ml, respectively; Sigma) was added, and the dish was incubated at 37° C. in an atmosphere of 5% CO2 for 2 days. The medium was replaced with a fresh medium containing individual samples and incubation was continued for another 20 hours. Then, the total RNA was prepared using TRIzol (Invitrogen) and purified using a RNeasy Mini kit (Qiagen) and an RNase-free DNase set (Qiagen). Further, cDNA was synthesized from 5 μg of the purified total RNA using a Thermo Script RT-PCR system (Invitrogen), and the amount of mRNA expression of various genes was determined using a FastStart DNA Master SYBR Green I kit (Roche) and a Light Cycler (Roche).
(§2) The amount of expression of the various genes was corrected by the amount of expression of the housekeeping gene PO and calculated as a relative expression level (n=2, mean±standard deviation). […]

[2] = tested on: NAD(P)H:quinone oxidoreductase (NQO1); assay: Expression of genes controlled by Nrf2 in RAW264.7: NQO1; format: cell-based, mouse; details: RAW264.7, 25 μM, 20 hours
Protocol: as §1, §2

catalase 1 (CAT1) = assay: Expression of genes controlled by Nrf2 in RAW264.7: CAT1; format: cell-based, mouse; details: RAW264.7, 25 μM, 20 hours
Protocol: as §1, §2

[3] = tested on: quinone reductase (QR) activity in mouse hepatoma Hepa1c1c7 cells; assay: Induction of quinone reductase (QR) activity; format: cell-based; details: Hepa1c1c7 cells, 0.6, 1.7, 5, and 15 μM, 48 hours; listed as HI (F)
Protocol: It has been known that quinone reductase (QR) activity is increased by increasing the expression of NAD(P)H:quinone oxidoreductase (NQO1) by Nrf2 activation (Proc Natl Acad Sci USA. 101, 10446-51 (2004)). Accordingly, isohumulones were allowed to act on mouse hepatoma Hepa1c1c7 cells (available from Dainippon Pharmaceutical Co., Ltd.) to examine whether the QR activity was induced.
The QR activity was measured in accordance with the method described in Analytical Biochemistry 169, 328-336 (1988).
A mouse hepatoma cell line Hepa1c1c7 was seeded on a 96-well plate (7-10×10^3 cells/well), 50 μl each of an α-MEM medium (Invitrogen) supplemented with 10% fetal bovine serum (HyClone) and penicillin-streptomycin (100 units/ml and 100 μg/ml, respectively; Sigma) was added, and the plate was incubated at […] in an atmosphere of 5% CO2 overnight. Next, the culture medium was replaced with a medium containing isomerized hop extract individually at a concentration of 1.9, 5.6, 16.7, or 50 μg/ml, or with a medium containing humulone (H), cohumulone (cH), adhumulone (aH), isohumulone (IH), isohumulone (IcH), or isohumulone (IaH) individually at a concentration of 0.6, 1.7, 5, and 15 μM and the plate was further incubated for 48 hours. Then, the cells in each well were broken using 0.08% digitonin and a 2 mM EDTA solution and absorption at 610 nm was measured by a menadione-formazan system using a microplate reader (Power Wave 200, Bio-Tek Instruments).
The QR inducing activity was calculated as a relative activity setting the activity of cells without addition to be 1 (n=3, mean±standard variation). Sulforaphane (Sul, available from Sigma) was used as a positive control.

[4] = tested on: glutathione S-transferase mu1 (GSTM1); assay: Expression of genes controlled by Nrf2 in RAW264.7: GSTM1; format: cell-based, mouse; details: RAW264.7, 25 μM, 20 hours
Protocol: as §1, §2

[5] = tested on: mouse macrophage cell line RAW264.7; assay: Amount of intracellular glutathione; format: cell-based; details: RAW264.7, 25 μM, 20 hours
Protocol: A mouse macrophage cell line RAW264.7 was seeded on a φ60 mm dish (7×10^5 cells), 2 ml of a D-MEM medium (Invitrogen) supplemented with 10% fetal bovine serum (HyClone) and penicillin-streptomycin (100 units/ml and 100 μg/ml, respectively; Sigma) was added, and the dish was incubated at 37° C. in an atmosphere of 5% CO2 for 2 days. The medium was replaced with a fresh medium containing individual samples and incubation was continued for another 20 hours. The samples added were isohumulone (IH(F)) and isohumulone (IcH(G)) at a concentration of 25 μM. The cells were recovered, broken by ultrasonication, and centrifuged to obtain the supernatant, and the amount of the total intracellular glutathione was measured using a glutathione assay kit (Cayman Chemical) (n=2, mean±standard deviation). As a positive control, 15dPGJ2 (Cayman Chemical) was used.

heme oxygenase 1 (HO1) = assay: Expression of genes controlled by Nrf2 in RAW264.7: HO1; format: cell-based, mouse; details: RAW264.7, 25 μM, 20 hours
Protocol: as §1, §2

[6] = tested on: thioredoxin reductase 1 (TXNRD1); assay: Expression of genes controlled by Nrf2 in RAW264.7: TXNRD1; format: cell-based, mouse; details: RAW264.7, 25 μM, 20 hours
Protocol: as §1, §2

## CC(C)=CCC(=O)C1(O)C(O)=C(C(=O)CC(C)C)C(=O)C1CC=C(C)C (centres unmarked) [IH (F), isohumulone]
[1]
  expression of G6PD2: augmented the expression
[2]
  expression of NQO1: augmented the expression
Catalase 1 (CAT1)
  expression of CAT1: augmented the expression
[3]
  QR inducing activity: activity was higher in isohumulones having a higher trans form content
[4]
  expression of GSTM1: augmented the expression
[5]
  amount of the total intracellular glutathione: Increased the amount of the total intracellular glutathione
Heme oxygenase 1 (HO1)
  expression of HO1: augmented the expression
[6]
  expression of TRNRD1: augmented the expression
